# pIC50: −log10 of the molar value.
# Target: NAD-dependent protein deacylase sirtuin-6 (Homo sapiens, UniProt Q8N6T7)
# Assay: Inhibition of SIRT6 (unknown origin) using Ac-RYQK(Ac)-AMC as substrate by Fluor de Lys assay
# Sequence of NAD-dependent protein deacylase sirtuin-6 (Q8N6T7 whole entry): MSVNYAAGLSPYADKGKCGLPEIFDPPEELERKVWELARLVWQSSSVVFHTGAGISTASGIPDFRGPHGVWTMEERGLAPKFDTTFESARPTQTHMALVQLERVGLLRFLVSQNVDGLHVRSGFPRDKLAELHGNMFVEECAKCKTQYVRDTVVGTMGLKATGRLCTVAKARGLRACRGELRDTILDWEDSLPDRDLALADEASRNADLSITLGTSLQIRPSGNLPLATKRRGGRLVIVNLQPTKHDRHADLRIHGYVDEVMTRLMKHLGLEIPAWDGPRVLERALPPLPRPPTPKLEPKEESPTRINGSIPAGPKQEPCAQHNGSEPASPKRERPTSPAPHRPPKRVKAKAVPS
row,SMILES,pIC50
1,COc1cc(N2CCN(C)CC2)ccc1[N+](=O)[O-],5.04
2,CN1CCN(c2ccc([N+](=O)[O-])c(O)c2)CC1,4.96
3,CN1CCN(c2ccc([N+](=O)[O-])c(C(F)(F)F)c2)CC1,4.68
4,CN1CCN(c2ccc([N+](=O)[O-])c(NC(=O)c3cc(Cl)nc4ccccc34)c2)CC1,4.91
5,CN1CCN(c2ccc([N+](=O)[O-])cc2)CC1,4.66
6,CN1CCN(c2ccc([N+](=O)[O-])c(C(=O)Nc3ccc(Oc4ccccc4)cc3)c2)CC1,4.68
7,CN1CCN(c2ccc([N+](=O)[O-])c(C(=O)Nc3cccc4ccccc34)c2)CC1,4.77
8,CN1CCN(c2ccc([N+](=O)[O-])c(NCc3ccccc3)c2)CC1,4.90
9,CN1CCN(c2ccc([N+](=O)[O-])c(C(=O)NCc3ccccc3)c2)CC1,4.76
10,COC(=O)c1cc(N2CCN(C)CC2)ccc1[N+](=O)[O-],5.02

# Source: ChEMBL document CHEMBL4622928, “Discovery of 5-(4-methylpiperazin-1-yl)-2-nitroaniline derivatives as a new class of SIRT6 inhibitors” (Bioorg Med Chem Lett, 2020)
